Where two headings read alike, the source gives them in different places.
How the values were obtained:
Type in all cases: cell-based
Loblolly pine initiates = test: Percentage of Loblolly pine maintenance cultures with mass greater than 200 mg at eight weeks; conditions: control 33.7
Description: “Initiates” will be used to refer to recently initiated embryogenic tissues still on the initiation media. In this experiment, initiates were transferred to a maintenance and multiplication media directly from the initiation media. Five treatments, consisting of various media or culture conditions were imposed on the these cultures. Treatment media were based on media #1191. (See Table 21.) Initiates derived from eight different cone collections of Loblolly pine were transferred to vials containing 5 ml solid media. Seventy five replications were prepared for each treatment.
The transferred initiates were grown in the various treatments for four weeks, and thereafter transferred to vials containing fresh media (of the same composition utilized during the previous four weeks). At the end of a second four-week period, cultures were carefully removed from the vials and weighed. The percentage of cultures that had attained a mass of 200 mg or more was calculated for each treatment.

[1] = test system: Loblolly pine embryogenic cultures; test: Growth of Loblolly pine embryogenic cultures from single somatic embryos (tissue diameter, area); conditions: base Media 1191, ABA 1.3 mg/l, standard atmosphere, five weeks
Protocol: Three previously initiated Loblolly pine embryogenic cultures, each representing a different genotype, were grown in liquid media #1133, used as starting material for embryogenic cultures on various treatment media. Using a dissecting scope, individual stage 2 somatic embryos were extracted and placed on treatment media in the center of individual wells on a well plate. Forty embryos were prepared per treatment media, per genotype. Well plates were wrapped in Parafilm® and cultured under standard conditions at room temperature in the dark for four weeks. Embryogenic cultures derived from the single isolated embryos proliferated and spread over the surface of the culture medium. Spreading cultures were roughly circular in shape, radiating from the central embryo. At the end of four weeks, the growth of each culture was measured by measuring colony diameter using a dissecting scope ocular micrometer. Five treatment media were compared to control media #1043 (Table 21). Three media consisted of #1043 supplemented with paclobutrazol at concentrations of 0.33, 1.0 and 3.0 ppm. A B-vitamin treatment contained biotin at 0.05 ppm and folic acid at 0.5 ppm. […] The pH of media containing four different concentrations of MES was compared to that of a non-buffered control media during eight weeks of embryogenic culture growth. Maintenance cultures were established on treatment media using single isolated somatic embryos. Maintenance cultures were prepared and cultured essentially as described in Example 5. The control media was #1043. (See Table 21). The treatment media consisted of #1043 supplemented with 250, 500, 1000 and 1500 mg/l MES. Media pH was adjusted to 5.7 within all treatments prior to autoclaving, pouring and solidification. Immediately after pouring the media, and thereafter at two week intervals, media pH was measured up to the eighth week of culture growth. At each sampling time, four cultures from each media-genotype treatment were destructively sampled to measure the pH of the media directly underlying the growing embryogenic tissue. This experiment measured the effects of ABA, vitamins, culturing in a closed container, and culturing at increased atmospheric pressure on the growth of embryogenic cultures. Maintenance cultures were prepared on well plates using single somatic embryos, essentially as described in Example 5.

[2] = test system: Loblolly pine megagametophytes; test: Initiation frequency of embryogenic cultures from Loblolly pine megagametophyte explants
Protocol: Explants were megagametophytes isolated from Loblolly pine summer cones when embryos were at approximately stage 2-4. Seeds were. collected from four individual trees of diverse genotypes. Extracted seeds were soaked in running water for 10 minutes, agitated in 10% liquinox supplemented with 1.1 ml/l of Tween 20 for 10 minutes, and rinsed with water for 30 minutes. Seeds were sterilized in a laminar flow hood by agitating in 20% hydrogen peroxide for 10 minutes and rinsing with sterile deionized water. The seed coat, integuments, and nucellus were removed to isolate the megagametophytes. Culturing was performed in 24-well multi-well culture plates with each well having an approximate volume of 3.0 ml. Two ml of media was poured into each well.
Each replication consisted of eight adjacent wells on a multi-well plate, with one megagametophyte per well, providing three replications per multi-well plate. Twelve replications (for a total of 96 explants) were performed per treatment for each cone collection. The well plates were wrapped in Parafilm®, elastic wrap to minimize evaporation and incubated at 22-24° C. under dark conditions for nine weeks. Initiation frequency was scored for each dish by counting the number of explants which had successfully initiated embryogenic cultures.
The media treatments consisted of: (1) a control media #1043 (see Table 21); (2) media #1218, comprising media #1043 supplemented with 250 mg/l MES buffer; (3) media #1043 supplemented with 0.5 ppm folic acid and 0.05 ppm biotin; and (4) media #1218 supplemented with 0.5 ppm folic acid and 0.05 ppm biotin.
A representative procedure is shown for Loblolly pine. Experimental procedure follow similarly for other conifer but differ slightly in the composition of media used. […] Here, however, each treatment-genotype test consisted of ten replications of ten explants.
The cultures were covered and incubated in the dark at 24-26° C. for nine weeks.
Explants from four Loblolly pine cone collections were prepared and cultured as described in Example 2. The media treatments consisted of control media, #1218, which is media #1043 supplemented. with 250 mg/l MES, and four treatment media, which consist of media #1218 supplemented with 0.33, 1.0, 2.0, and 3.0 ppm paclobutrazol, respectively.
Four cone collections with embryos at stages 2-4 were used. Eighty explants from each cone collection on each media were tested. Seeds were removed from cones and soaked in running water for 10 min. Seeds were then agitated in 10% liquinox containing 1.1 ml/l Tween 20 for 10 min., and then rinsed with running tap water for 30 min. After transferring to a sterile hood, seeds were agitated in 20% H2O2 for 10 min., rinsed with sterile nanopure® H2O five times for 5 to 10 min. intervals, and then placed into a sterile petri dish for dissection. Seeds were dissected by splitting the seed coat, removing the integuments and nucellus. The megagametophyte was placed onto the appropriate medium. Each multi-well test plate contained 2 ml of solid media. Plates were incubated in the dark for 8 weeks and then scored.
The control media, media #1253, is described in detail in Table 16. All test media, #1275, #1421, #1422, and #1423 were comprised of the control media with the addition of a gibberellin inhibitor.

conifer = test: Inventors' observation of initiation frequency in conifer with gibberellins
[3] = base media #1253, 1.0 ppm paclobutrazol, 0.1062 ppm flurprimidol, 1.58 ppm chlormequat-Cl, 0.16 ppm succinic acid-dh, 8 weeks, dark, control 29.5
[4] = base media #1253, 1.0 ppm paclobutrazol, 0.1062 ppm flurprimidol, 1.58 ppm chlormequat-Cl, 0.16 ppm succinic acid-dh, 8 weeks, dark, control 58.6

`CC1=CC(=O)CC(C)(C)[C@@]1(O)/C=C/C(C)=C\C(=O)O` [ABA, abscisic acid] was tested, and the “% mass >200 mg” value (Loblolly pine initiates; Media 1191 + 1.3 mg/l ABA, cultured at 1.5 atm) was 61.2%, the “% mass >200 mg” value (Loblolly pine initiates; base Media 1191, ABA 1.3 mg/l, brassinolide 0.1 μM + paclobutrazol 1.0 ppm, MES 250 mg/l, biotin 0.05 ppm, folic acid 0.5 ppm) was 48.6% and the “Tissue diameter (mm)” value ([1]; control 4.11) was 4.61 mm. For the same compound, the “Tissue area (mm^2)” value ([1]; control 13.3) was 16.7 mm^2.

For `C[N+](C)(C)CCCl` [Chlormequat-Cl, chlormequat-Cl], the “Initiation Frequency (%)” value [2, 3] was 36.8% and the “Extrusion (%)” value [2, 4] was 61.6%.

In the case of `CC(C)C(O)(c1ccc(OC(F)(F)F)cc1)c1cncnc1` (centres unmarked) [Flurprimidol, flurprimidol], the “Extrusion (%)” value [2] is reported as 59.9% and the “Initiation Frequency (%)” value [2] is reported as 36.3%.

In the case of `CN(C)NC(=O)CCC(=O)O` [Succinic Acid-DH, succinic acid-DH], the “Initiation Frequency (%)” value [2, 3] is reported as 38.0% and the “Extrusion (%)” value [2, 4] is reported as 63.3%.

With `C=C1C[C@]23C[C@@]1(O)CC[C@H]2[C@@]12C=C[C@H](O)[C@@](C)(C(=O)O1)[C@H]2[C@@H]3C(=O)O` [gibberellic acid] the “effect on initiation frequency in conifer” value (conifer) was “inhibitory effect”.

— patent US20060051868A1, “Methods for increasing conifer somatic embryo initiation, capture, and multiplication” (priority 2001, published 2006)
